The record followed here is patent US9497963B2, “Methods and compositions for control of gypsy moth, Lymantria dispar” (Simon Fraser University, priority 2008, dated 2016).

What all share (design): species or system Lymantria dispar
The test system of experiment [1] is L. dispar PBP 1. As to the kind of experiment: Pheromone-binding protein (PBP) ligand binding assay, PBP1. To be noted: tested as single compound; means ± S.E., 4 replicates. As for the experimental part: (§1) A. The protein and ligand are incubated in buffer overnight. B. For half of the incubation mixture, the free ligand (L) is separated from the protein-bound ligand (P.L) by size-exclusion chromatography on P2 Gel (BioRad, exclusion limit 2000 Da). The protein elutes from the small column bed, with its ligand bound (see Examples and […] et al. 2000; Staddon and Everton 1980), while the free ligand is retained on the column ([…] et al. 2000). C. […] The extract from the filtrate (B) contains the protein-bound ligand and the extract from the incubation mixture (A) contains all the ligand (bound and free) present in the aqueous phase. The extracts are analyzed by GC-MS, to obtain values for total ligand in solution (L+P.L) and for protein-bound ligand (P.L). These can then be used to calculate % bound (Table 3). These assays were performed as described in FIG. 3 and as follows: L. dispar PBP 1 or PBP 2 was incubated with the test compound or mini-library. The PBP and the ligand(s) (L) were left to equilibrate (eq 2) overnight. The non-bound ligand was then separated from the protein-bound material (PBP.L) by size-exclusion chromatography. By determining the total ligand in solution at equilibrium (eq. 3) and the protein-bound ligand, it is possible to estimate the percentage of ligand bound to the protein at equilibrium (eq. 4). […] This binding assay has been validated extensively in previous studies ([…] et al. 2000). The components of each mini-library separated cleanly by GC, so it was possible to monitor binding of individual components. PBP+L⇄PBP·L (eq. 2) [L]tot=[L]+[PBP·L] (eq. 3) % bound=100×[PBP·L]/[L]tot (eq. 4) Results: The members of each mini-library separated cleanly by GC, therefore it was possible to monitor binding of individual members to PBP1 or PBP2, the two known PBPs in the gypsy moth, by extraction from the aqueous incubation mixture, followed by GC analysis of the extract (FIG. 3).

For experiment [2], the system named is L. dispar PBP 2. As to the kind of experiment: Pheromone-binding protein (PBP) ligand binding assay, PBP2. The note with it: tested as single compound; means ± S.E., 4 replicates. As for the experimental part: as §1
Experiment [3] has as its system male gypsy moth antenna response to pheromone (+)-1. As to the kind of experiment: Decay of the long-term inhibitory effect and dose responses, EAG (Example 6). The note with it: 100 ng; maximal value, on average. As for the experimental part:
LTI dependence on the delay time of the pure (+)-1 puffs (v-vii, Example 6) after the mixed (+)-1/inhibitor puff. The amount of (+)-1 was varied from 10 ng to 1 μg and the amount of inhibitor was constant at 100 μg. FIG. 7B. Dose response of LTI with respect to variable (+)-1 responses and time responses for the strongest long-term inhibition of EAG responses towards (+)-1. FIG. 7C. Dose response of pure pheromone (+)-1. FIG. 7D.
This recovery usually took 5-7 s. The short-term inhibition STI(compound, dose) was calculated for each mixed plume. The long-term inhibition LTI(dose, time) was calculated for each dose and for each of the three puffs following the mixed pheromone-inhibitor plume.

Consider `CCCCCCCCCC[C@@H]1O[C@@H]1CCCCC(C)C` (relative stereo) [(+)-disparlure, cis-(7R,8S)-7,8-epoxy-2-methyloctadecane, reference compound], for which the “PBP1 (% bound)” value in experiment [1] stood at 54 ± 16%. The “PBP2 (% bound)” value in experiment [2] is listed as 71 ± 23%. Also, the “depolarization with pure pheromone” value in experiment [3] is 20 mV.
